Reference: patent US10065970B2 (Genentech, Inc., priority 2015, dated 2018)

Target: PI3Kα (alpha) (Homo sapiens (Human), UniProt P42336)
Experiment: p110α (alpha) PI3K Binding Assay (ADP-Glo lipid kinase reaction)
Type: biochemical
Settings: PI3K alpha 0.2 nM, ATP 40 μM, PIP2:3PS 50 μM, 120 min, room temperature; Ki by Morrison Equation; read-out: PI3Kα-(alpha) ATP (Ki) micromolar
Protocol: The ability of a compound of the invention to act as an inhibitor of PI3Kα was determined using the methods of Example 901.
PI3K Binding assays are intended for determining the biochemical potency of small molecule PI3K inhibitors. The PI3K lipid kinase reaction is performed in the presence of PIP2:3PS lipid substrate (Promega #V1792) and ATP. Following the termination if the kinase reaction, turnover of ATP to ADP by the phosphorylation of the lipid substrate is detected using the Promega ADP-Glo™ (Promega #V1792) assay. Reactions are carried out using the following conditions:
After 120 minutes of reaction time, the kinase reaction is terminated. Any ATP remaining after the reaction is depleted, leaving only ADP. Then the Kinase Detection Reagent is added to convert ADP to ATP, which is used in a coupled luciferin/luciferase reaction. The luminescent output is measured and is correlated with kinase activity.
All reactions are carried out at room temperature. A 3 μl mixture (1:1) of enzyme/lipid substrate solution is added to a 384 well white assay plate (Perkin Elmer #6007299) containing 50 nl of test compound or DMSO only for untreated controls. The reaction is started by the addition of 2 μl ATP/MgCl2. The kinase reaction buffer contains 50 mM HEPES, 50 mM NaCl, 3 mM MgCl2, 0.01% BSA, 1% DMSO, and enzyme and substrate concentrations as indicated in the above table. The reaction is stopped by the addition of 10 μL ADP-Glo reagent. Plates are read in a Perkin Elmer Envision system using luminescence mode. 10 point dose response curves are generated for each test compound. Ki values for each compound are determined using the Morrison Equation.

Sequence of PI3Kα (alpha) (P42336 whole entry): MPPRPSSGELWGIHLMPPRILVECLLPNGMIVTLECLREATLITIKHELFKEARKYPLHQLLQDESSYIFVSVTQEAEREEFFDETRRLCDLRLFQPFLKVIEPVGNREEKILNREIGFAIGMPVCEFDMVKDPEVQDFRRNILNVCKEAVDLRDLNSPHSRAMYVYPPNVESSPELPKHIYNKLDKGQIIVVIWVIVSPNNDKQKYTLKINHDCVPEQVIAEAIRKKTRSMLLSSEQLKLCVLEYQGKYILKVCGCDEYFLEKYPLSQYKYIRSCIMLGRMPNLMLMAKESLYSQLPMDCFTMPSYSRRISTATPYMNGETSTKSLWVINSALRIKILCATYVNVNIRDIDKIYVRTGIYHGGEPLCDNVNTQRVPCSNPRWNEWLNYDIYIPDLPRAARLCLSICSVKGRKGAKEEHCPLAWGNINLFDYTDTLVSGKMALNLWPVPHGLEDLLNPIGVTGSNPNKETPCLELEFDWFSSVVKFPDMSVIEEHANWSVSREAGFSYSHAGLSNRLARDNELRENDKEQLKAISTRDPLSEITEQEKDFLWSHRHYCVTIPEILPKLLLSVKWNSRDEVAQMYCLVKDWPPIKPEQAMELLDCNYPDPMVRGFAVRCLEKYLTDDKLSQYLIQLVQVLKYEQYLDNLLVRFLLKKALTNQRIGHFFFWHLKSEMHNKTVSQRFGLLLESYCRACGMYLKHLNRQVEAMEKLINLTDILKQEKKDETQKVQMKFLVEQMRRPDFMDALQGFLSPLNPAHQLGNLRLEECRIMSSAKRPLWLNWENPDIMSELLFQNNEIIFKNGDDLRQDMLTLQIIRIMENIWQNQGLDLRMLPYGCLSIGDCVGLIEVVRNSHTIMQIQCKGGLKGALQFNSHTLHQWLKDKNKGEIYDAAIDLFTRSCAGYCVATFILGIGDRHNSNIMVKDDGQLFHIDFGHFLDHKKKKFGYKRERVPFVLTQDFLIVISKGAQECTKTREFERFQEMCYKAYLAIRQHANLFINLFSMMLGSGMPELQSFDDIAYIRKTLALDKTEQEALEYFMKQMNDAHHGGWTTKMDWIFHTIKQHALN
Sequence of PI3Kα (alpha) (P27986 whole entry partner): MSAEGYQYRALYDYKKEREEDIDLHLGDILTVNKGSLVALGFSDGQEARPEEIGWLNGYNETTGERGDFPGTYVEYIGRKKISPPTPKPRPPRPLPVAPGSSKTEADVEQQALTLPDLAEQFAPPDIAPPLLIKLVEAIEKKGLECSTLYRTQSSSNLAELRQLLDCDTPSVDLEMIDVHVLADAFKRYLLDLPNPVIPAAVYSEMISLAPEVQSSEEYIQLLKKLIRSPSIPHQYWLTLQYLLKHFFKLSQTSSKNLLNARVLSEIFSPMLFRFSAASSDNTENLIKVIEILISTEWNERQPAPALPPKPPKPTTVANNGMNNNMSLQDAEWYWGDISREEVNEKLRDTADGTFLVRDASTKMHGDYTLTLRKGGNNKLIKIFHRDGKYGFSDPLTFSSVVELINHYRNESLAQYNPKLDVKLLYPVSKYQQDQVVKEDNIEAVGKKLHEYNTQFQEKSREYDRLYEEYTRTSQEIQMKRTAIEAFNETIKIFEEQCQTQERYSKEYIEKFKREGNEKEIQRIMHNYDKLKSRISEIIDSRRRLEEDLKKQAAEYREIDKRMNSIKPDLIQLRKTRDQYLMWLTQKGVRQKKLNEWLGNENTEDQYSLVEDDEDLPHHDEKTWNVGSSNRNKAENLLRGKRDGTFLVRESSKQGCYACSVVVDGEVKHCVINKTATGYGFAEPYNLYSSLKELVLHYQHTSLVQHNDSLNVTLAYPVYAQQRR

| Ki [µM] | Structure (SMILES) |
| --- | --- |
| 0.139 | Cn1cc(-c2nc3cc(N[C@H](C(N)=O)C4CC4)cc4c3n2CCCO4)ccc1=O [Example 147, (S)-2-Cyclopropyl-2-((1-(1-methyl-6-oxo-1,6-dihydropyridin-3-yl)-8,9-dihydro-7H-6-oxa-2,9a-diazabenzo[cd]azulen-4-yl)amino)acetamide] |
| 0.059 | NC(=O)[C@@H](Nc1cc2c3c(c1)nc(-c1cnc4c(c1)OCCO4)n3CCCO2)C1CC1 [Example 148, (S)-2-Cyclopropyl-2-((1-(2,3-dihydro-[1,4]dioxino[2,3-b]pyridin-7-yl)-8,9-dihydro-7H-6-oxa-2,9a-diazabenzo[cd]azulen-4-yl)amino)acetamide] |
| 0.0182 | NC(=O)[C@@H](Nc1cc2c3c(c1)nc(N1Cc4cnc(N)nc4C1)n3CCCO2)C1CC1 [Example 149, (S)-2-((1-(2-Amino-5H-pyrrolo[3,4-d]pyrimidin-6(7H)-yl)-8,9-dihydro-7H-6-oxa-2,9a-diazabenzo[cd]azulen-4-yl)amino)-2-cyclopropylacetamide] |
| 0.49 | NC(=O)[C@@H](Nc1cc2c3c(c1)nc(-c1ccc(OC(F)F)cc1)n3CCCO2)C1CC1 [Example 150, (S)-2-Cyclopropyl-2-((1-(4-(difluoromethoxy)phenyl)-8,9-dihydro-7H-6-oxa-2,9a-diazabenzo[cd]azulen-4-yl)amino)acetamide] |
| 0.0102 | NC(=O)c1cc(-c2nc3cc(N[C@H](C(N)=O)C4CC4)cc4c3n2CCCO4)ccn1 [Example 151, (S)-4-(4-((2-Amino-1-cyclopropyl-2-oxoethyl)amino)-8,9-dihydro-7H-6-oxa-2,9a-diazabenzo[cd]azulen-1-yl)picolinamide] |
| 0.000638 | Nc1nc2cc(-c3nc4cc(-c5cnn(CCO)c5)cc5c4n3CCCO5)ccc2o1 [Example 152, 2-(4-(1-(2-Aminobenzo[d]oxazol-5-yl)-8,9-dihydro-7H-6-oxa-2,9a-diazabenzo[cd]azulen-4-yl)-1H-pyrazol-1-yl)ethanol] |
| 0.00074 | Cn1cc(-c2cc3c4c(c2)nc(-c2ccc5oc(N)nc5c2)n4CCCO3)cn1 [Example 153, 5-(4-(1-Methyl-1H-pyrazol-4-yl)-8,9-dihydro-7H-6-oxa-2,9a-diazabenzo[cd]azulen-1-yl)benzo[d]oxazol-2-amine] |
| 0.000317 | CNC(=O)C(C)(C)n1cc(-c2cc3c4c(c2)nc(-c2ccc5oc(N)nc5c2)n4CCCO3)cn1 [Example 154, 2-(4-(1-(2-Aminobenzo[d]oxazol-5-yl)-8,9-dihydro-7H-6-oxa-2,9a-diazabenzo[cd]azulen-4-yl)-1H-pyrazol-1-yl)-N,2-dimethylpropanamide] |
| 0.078 | NC(=O)[C@@H](Nc1cc2c3c(c1)nc(-c1ccc4[nH]c(=O)oc4c1)n3CCCO2)C1CC1 [Example 155, (S)-2-Cyclopropyl-2-((1-(2-oxo-2,3-dihydrobenzo[d]oxazol-6-yl)-8,9-dihydro-7H-6-oxa-2,9a-diazabenzo[cd]azulen-4-yl)amino)acetamide] |
| 0.000264 | NC(=O)[C@@H](Nc1cc2c3c(c1)nc(-c1ccn4ncnc4n1)n3CCCO2)C1CC1 [Example 156, (S)-2-((1-([1,2,4]triazolo[1,5-a]pyrimidin-5-yl)-8,9-dihydro-7H-6-oxa-2,9a-diazabenzo[cd]azulen-4-yl)amino)-2-cyclopropylacetamide] |
| 0.0165 | NC(=O)c1cc(-c2nc3cc(N[C@H](C(N)=O)C4CC4)cc4c3n2CCCO4)ccc1F [Example 157, (S)-5-(4-((2-Amino-1-cyclopropyl-2-oxoethyl)amino)-8,9-dihydro-7H-6-oxa-2,9a-diazabenzo[cd]azulen-1-yl)-2-fluorobenzamide] |
| 0.206 | COC(=O)c1cc(-c2nc3cc(N[C@H](C(N)=O)C4CC4)cc4c3n2CCCO4)ccc1OC [Example 158, (S)-Methyl 5-(4-((2-amino-1-cyclopropyl-2-oxoethyl)amino)-8,9-dihydro-7H-6-oxa-2,9a-diazabenzo[cd]azulen-1-yl)-2-methoxybenzoate] |
| 0.0872 | CS(=O)(=O)c1cc(-c2nc3cc(N[C@H](C(N)=O)C4CC4)cc4c3n2CCCO4)ccn1 [Example 159, (S)-2-Cyclopropyl-2-((1-(2-(methylsulfonyl)pyridin-4-yl)-8,9-dihydro-7H-6-oxa-2,9a-diazabenzo[cd]azulen-4-yl)amino)acetamide] |
| 0.914 | Cc1nn(C)cc1-c1nc2cc(N[C@H](C(N)=O)C3CC3)cc3c2n1CCCO3 [Example 160, (S)-2-Cyclopropyl-2-[1-(1,3-dimethyl-1H-pyrazol-4-yl)-8,9-dihydro-7H-6-oxa-2,9a-diazabenzo[cd]azulen-4-ylamino]acetamide] |
| 0.121 | NC(=O)[C@@H](Nc1cc2c3c(c1)nc(N1CCn4ncnc4C1)n3CCCO2)C1CC1 [Example 161, (S)-2-Cyclopropyl-2-((1-(5,6-dihydro-[1,2,4]triazolo[1,5-a]pyrazin-7(8H)-yl)-8,9-dihydro-7H-6-oxa-2,9a-diazabenzo[cd]azulen-4-yl)amino)acetamide] |
| 0.000201 | C[C@H](Oc1cc2c3c(c1)nc(-c1ccc4oc(N)nc4c1)n3CCCO2)C(N)=O [Example 162, (S)-2-((1-(2-Aminobenzo[d]oxazol-5-yl)-8,9-dihydro-7H-6-oxa-2,9a-diazabenzo [cd]azulen-4-yl)oxy)propanamide] |
| 0.0342 | COc1ccc(-c2nc3cc(N[C@H](C(N)=O)C4CC4)cc4c3n2CCCO4)cc1OC(F)F [Example 163, (S)-2-Cyclopropyl-2-((1-(3-(difluoromethoxy)-4-methoxyphenyl)-8,9-dihydro-7H-6-oxa-2,9a-diazabenzo[cd]azulen-4-yl)amino)acetamide] |
| 0.16 | COc1ccc(-c2nc3cc(N[C@H](C(N)=O)C4CC4)cc4c3n2CCCO4)cc1C(N)=O [Example 164, (S)-5-(4-((2-Amino-1-cyclopropyl-2-oxoethyl)amino)-8,9-dihydro-7H-6-oxa-2,9a-diazabenzo[cd]azulen-1-yl)-2-methoxybenzamide] |
| 0.108 | NC(=O)[C@@H](Nc1cc2c3c(c1)nc(-c1ccncc1)n3CCCO2)C1CC1 [Example 165, (S)-2-Cyclopropyl-2-((1-(pyridin-4-yl)-8,9-dihydro-7H-6-oxa-2,9a-diazabenzo[cd]azulen-4-yl)amino)acetamide] |
| 0.402 | OCc1nc2cc(-c3nc4cc(Br)cc5c4n3CCCO5)ccc2o1 [Example 168, (5-(4-Bromo-8,9-dihydro-7H-6-oxa-2,9a-diazabenzo[cd]azulen-1-yl)benzo[d]oxazol-2-yl)methanol] |
| 0.00392 | NC(=O)[C@@H](Nc1cc2c3c(c1)nc(-c1ccnc4[nH]ncc14)n3CCCO2)C1CC1 [Example 169, (S)-2-((1-(1H-Pyrazolo[3,4-b]pyridin-4-yl)-8,9-dihydro-7H-6-oxa-2,9a-diazabenzo[cd]azulen-4-yl)amino)-2-cyclopropylacetamide] |
| 0.000614 | NC(=O)[C@@H](Nc1cc2c3c(c1)nc(-c1ccc4nc(N)sc4c1)n3CCCO2)C1CC1 [Example 170, (S)-2-((1-(2-Aminobenzo[d]thiazol-6-yl)-8,9-dihydro-7H-6-oxa-2,9a-diazabenzo[cd]azulen-4-yl)amino)-2-cyclopropylacetamide] |
| 0.0465 | COc1cnc2cc(-c3nc4cc(N[C@H](C(N)=O)C5CC5)cc5c4n3CCCO5)ccc2n1 [Example 173, (S)-2-Cyclopropyl-2-((1-(2-methoxyquinoxalin-6-yl)-8,9-dihydro-7H-6-oxa-2,9a-diazabenzo[cd]azulen-4-yl)amino)acetamide] |
| 0.262 | N#CC1CCCN(c2nc3cc(NC(C(N)=O)C4CC4)cc4c3n2CCCO4)C1 [Example 174, (S)-2-[1-(3-Cyanopiperidin-1-yl)-8,9-dihydro-7H-6-oxa-2,9a-diazabenzo[cd]azulen-4-ylamino]-2-cyclopropylacetamide] |
| 0.026 | CS(=O)(=O)c1cncc(-c2nc3cc(N[C@H](C(N)=O)C4CC4)cc4c3n2CCCO4)c1 [Example 175, (S)-2-Cyclopropyl-2-((1-(5-(methylsulfonyl)pyridin-3-yl)-8,9-dihydro-7H-6-oxa-2,9a-diazabenzo[cd]azulen-4-yl)amino)acetamide] |
| 0.326 | NC(=O)[C@@H](Nc1cc2c3c(c1)nc(-c1ccnc4[nH]cnc14)n3CCCO2)C1CC1 [Example 176, (S)-2-((1-(3H-Imidazo[4,5-b]pyridin-7-yl)-8,9-dihydro-7H-6-oxa-2,9a-diazabenzo[cd]azulen-4-yl)amino)-2-cyclopropylacetamide] |
| 0.234 | NC(=O)[C@@H](Nc1cc2c3c(c1)nc(-c1ccnc4sccc14)n3CCCO2)C1CC1 [Example 177, (S)-2-Cyclopropyl-2-((1-(thieno[2,3-b]pyridin-4-yl)-8,9-dihydro-7H-6-oxa-2,9a-diazabenzo[cd]azulen-4-yl)amino)acetamide] |

Same assay, conditions: read-out: PI3Kα-(alpha) ATP (Ki) micromolar

| Ki [µM] | Structure (SMILES) |
| --- | --- |
| 0.000501 | Nc1nc2cc(-c3nc4cc(Br)cc5c4n3CCCCO5)ccc2o1 [Example 172, 5-(4-bromo-7,8,9,10-tetrahydro-6-oxa-2,10a-diazacycloocta[cd]-inden-1-yl)benzo[d]oxazol-2-amine] |
